Test results as given in PubChem BioAssay (NCI).
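In this assay, cells in 96-well plates receive the compound at five concentrations for 48 hours. Endpoints are linearly interpolated between the surrounding concentrations. Abbreviation: GI50, concentration required for 50% inhibition of growth. Definition used: TGI = concentration required for complete inhibition of growth.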

What was measured:
Test in all cases: NCI tumour cell line growth inhibition, 48 h
[1] = system: DU-145 prostate
[2] = system: T-47D breast
[3] = system: OVCAR-4 ovarian
[4] = system: IGROV1 ovarian
[5] = system: SK-OV-3 ovarian
[6] = system: MDA-MB-231 breast
[7] = system: UACC-62 melanoma
[8] = system: CAKI-1 renal
[9] = system: EKVX NSCLC
[10] = system: A549 NSCLC
[11] = system: SNB-19 CNS
[12] = system: OVCAR-8 ovarian
[13] = system: HCT-15 colon
[14] = system: NCI-H460 lung
[15] = system: MALME-3M melanoma
[16] = system: NCI/ADR-RES ovarian
[17] = system: SW-620 colon
[18] = system: HCC-2998 colon
[19] = system: A498 renal
[20] = system: OVCAR-3 ovarian
[21] = system: M14 melanoma
[22] = system: PC-3 prostate
[23] = system: TK-10 renal
[24] = system: MCF7 breast
[25] = system: HS 578T breast
[26] = system: NCI-H522 lung
[27] = system: HOP-62 NSCLC
[28] = system: SF-295 CNS
[29] = system: SF-268 CNS
[30] = system: HL-60(TB) leukemia
[31] = system: SNB-75 CNS
[32] = system: UACC-257 melanoma
[33] = system: SK-MEL-5 melanoma
[34] = system: SR leukemia
[35] = system: SK-MEL-28 melanoma
[36] = system: HCT-116 colon
[37] = system: OVCAR-5 ovarian
[38] = system: HOP-92 NSCLC
[39] = system: RXF 393 renal
[40] = system: CCRF-CEM leukemia
[41] = system: SK-MEL-2 melanoma
[42] = system: SN12C renal
[43] = system: COLO 205 colon
[44] = system: ACHN renal
[45] = system: LOX IMVI melanoma
[46] = system: KM12 colon
[47] = system: BT-549 breast
[48] = system: UO-31 renal
[49] = system: RPMI-8226 leukemia
[50] = system: U251 CNS
[51] = system: 786-0 renal
[52] = system: K-562 leukemia
[53] = system: HT29 colon
[54] = system: MDA-MB-435
[55] = system: MOLT-4 leukemia
[56] = system: SF-539 CNS
[57] = system: NCI-H226 lung

What does the source list for `c1ccc2c(NCCCN3CCOCC3)c3oc4ccccc4c3nc2c1`?
GI50 [1]: 1.55 µM; TGI [1]: 16.2 µM; GI50 [2]: 2.61 µM; TGI [2]: 9.77 µM; GI50 [3]: 1.24 µM; TGI [3]: 5.14 µM; GI50 [4]: 2.26 µM; TGI [4]: 12 µM; GI50 [5]: 3.14 µM; TGI [5]: 18.6 µM; GI50 [6]: 1.54 µM; TGI [6]: 7.14 µM; GI50 [7]: 2.16 µM; TGI [7]: 5.49 µM; GI50 [8]: 1.1 µM; TGI [8]: 11.1 µM; GI50 [9]: 2.54 µM; TGI [9]: 13.2 µM; GI50 [10]: 1.58 µM; TGI [10]: 12.6 µM; GI50 [11]: 1.87 µM; TGI [11]: 13.1 µM; GI50 [12]: 1.17 µM; TGI [12]: 11.2 µM; GI50 [13]: 0.719 µM; TGI [13]: 12.2 µM; GI50 [14]: 0.459 µM; TGI [14]: 5.96 µM; GI50 [15]: 1.82 µM; TGI [15]: 3.85 µM; GI50 [16]: 0.692 µM; TGI [16]: 10.9 µM; GI50 [17]: 0.509 µM; TGI [17]: 10.5 µM; GI50 [18]: 1.1 µM; TGI [18]: 3.72 µM; GI50 [19]: 2.01 µM; TGI [19]: 4.41 µM; GI50 [20]: 2.41 µM; TGI [20]: 45.4 µM; GI50 [21]: 1.66 µM; TGI [21]: 4.11 µM; GI50 [22]: 1.89 µM; TGI [22]: 7.59 µM; GI50 [23]: 2.55 µM; TGI [23]: 9.75 µM; GI50 [24]: 1.02 µM; TGI [24]: 5.83 µM; GI50 [25]: 2.08 µM; TGI [25]: 6.99 µM; GI50 [26]: 1.28 µM; TGI [26]: 3.15 µM; GI50 [27]: 1.67 µM; TGI [27]: 8.18 µM; GI50 [28]: 1.59 µM; TGI [28]: 10.7 µM; GI50 [29]: 1.25 µM; TGI [29]: 15.5 µM; GI50 [30]: 2.34 µM; TGI [30]: 8.59 µM; GI50 [31]: 1.31 µM; TGI [31]: 2.6 µM; GI50 [32]: 1.94 µM; TGI [32]: 4.08 µM; GI50 [33]: 1.98 µM; TGI [33]: 3.99 µM; GI50 [34]: 0.599 µM; TGI [34]: 10.1 µM; GI50 [35]: 1.88 µM; TGI [35]: 3.79 µM; GI50 [36]: 0.437 µM; TGI [36]: 11.1 µM; GI50 [37]: 1.57 µM; TGI [37]: 7.28 µM; GI50 [38]: 2.1 µM; TGI [38]: 5.82 µM; GI50 [39]: 1.29 µM; TGI [39]: 3.22 µM; GI50 [40]: 1.64 µM; TGI [40]: 15 µM; GI50 [41]: 1.73 µM; TGI [41]: 3.29 µM; GI50 [42]: 1.02 µM; TGI [42]: 11.5 µM; GI50 [43]: 0.949 µM; TGI [43]: 2.77 µM; GI50 [44]: 0.577 µM; TGI [44]: 20.1 µM; GI50 [45]: 0.568 µM; TGI [45]: 3.23 µM; GI50 [46]: 1.46 µM; TGI [46]: 15.3 µM; GI50 [47]: 2.03 µM; TGI [47]: 4.75 µM; GI50 [48]: 1.73 µM; TGI [48]: 11.7 µM; GI50 [49]: 1.72 µM; TGI [49]: 6.28 µM; GI50 [50]: 1.49 µM; TGI [50]: 11 µM; GI50 [51]: 1.95 µM; TGI [51]: 14 µM; GI50 [52]: 0.649 µM; TGI [52]: > 100 µM; GI50 [53]: 0.566 µM; TGI [53]: 2.33 µM; GI50 [54]: 1.26 µM; TGI [54]: 2.61 µM; GI50 [55]: 0.476 µM; TGI [55]: 38.1 µM; GI50 [56]: 1.5 µM; TGI [56]: 3.46 µM; GI50 [57]: 1.93 µM; TGI [57]: 5.3 µM
